# Data from patent EP2361611A2, “Aqueous sustained-release drug delivery system for highly water-soluble electrolytic drugs” (Upm Pharmaceuticals, Inc., priority 2005, dated 2006).
# Experiment: Equilibrium binding study in a two-compartment dialysis cell, HPLC
# Settings: sodium alginate 0.877 g/L, 25°C
# [1] = total drug concentration 4.97 M x 10^4
# [2] = total drug concentration 5.47 M x 10^4
# [3] = total drug concentration 5.96 M x 10^4
# [4] = total drug concentration 6.96 M x 10^4
# [5] = total drug concentration 7.95 M x 10^4
# [6] = total drug concentration 8.95 M x 10^4
# [7] = total drug concentration 9.94 M x 10^4
# [8] = total drug concentration 14.91 M x 10^4
# [9] = total drug concentration 19.88 M x 10^4
# [10] = total drug concentration 24.86 M x 10^4
# [11] = total drug concentration 30.40 M x 10^4
# [12] = total drug concentration 41.20 M x 10^4
# [13] = total drug concentration 50.70 M x 10^4
# Procedure: The studies were performed with a two compartment plexiglass dialysis cell (Hollenbeck laboratory) and having a cellulose membrane (molecular weight cutoff of 6000 Daltons) Bel-Art Products (Pequannock, NJ) placed between the two cell compartments. […] The dialysis cell was shaken at 80 RPM in a thermostatic water bath at 25°C until equilibrium was reached (30 h). The solution was removed from the drug compartment and the concentrations of free drug and polymer-bound drug measured by high performance liquid chromatography ("HPLC").
smiles,measurement,setting,value
CC(C)NCC(O)COc1cccc2ccccc12 (stereo not drawn) [propranolol],Amount bound per gram of polymer,[1],4.59 M x 10^4
same,Bound drug concentration,[1],4.03 M x 10^4
same,Free drug concentration,[1],0.94 M x 10^4
same,r/(Df),[1],4.88 L/g
same,Amount bound per gram of polymer,[2],4.84 M x 10^4
same,Bound drug concentration,[2],4.25 M x 10^4
same,Free drug concentration,[2],1.22 M x 10^4
same,r/(Df),[2],3.97 L/g
same,Amount bound per gram of polymer,[3],5.16 M x 10^4
same,Bound drug concentration,[3],4.53 M x 10^4
same,Free drug concentration,[3],1.43 M x 10^4
same,r/(Df),[3],3.60 L/g
same,Amount bound per gram of polymer,[4],5.86 M x 10^4
same,Bound drug concentration,[4],5.14 M x 10^4
same,Free drug concentration,[4],1.82 M x 10^4
same,r/(Df),[4],3.21 L/g
same,Amount bound per gram of polymer,[5],6.23 M x 10^4
same,Bound drug concentration,[5],5.46 M x 10^4
same,Free drug concentration,[5],2.49 M x 10^4
same,r/(Df),[5],2.49 L/g
same,Amount bound per gram of polymer,[6],6.12 M x 10^4
same,Bound drug concentration,[6],5.37 M x 10^4
same,Free drug concentration,[6],3.57 M x 10^4
same,r/(Df),[6],1.71 L/g
same,Amount bound per gram of polymer,[7],6.66 M x 10^4
same,Bound drug concentration,[7],5.83 M x 10^4
same,Free drug concentration,[7],4.10 M x 10^4
same,r/(Df),[7],1.62 L/g
same,Amount bound per gram of polymer,[8],8.61 M x 10^4
same,Free drug concentration,[8],7.36 M x 10^4
same,r/(Df),[8],1.17 L/g
same,Amount bound per gram of polymer,[9],9.81 M x 10^4
same,Bound drug concentration,[9],8.60 M x 10^4
same,Free drug concentration,[9],11.28 M x 10^4
same,r/(Df),[9],0.87 L/g
same,Amount bound per gram of polymer,[10],10.73 M x 10^4
same,Bound drug concentration,[10],9.41 M x 10^4
same,Free drug concentration,[10],15.45 M x 10^4
same,r/(Df),[10],0.60 L/g
same,Amount bound per gram of polymer,[11],11.49 M x 10^4
same,Bound drug concentration,[11],10.08 M x 10^4
same,Free drug concentration,[11],20.32 M x 10^4
same,r/(Df),[11],0.57 L/g
same,Amount bound per gram of polymer,[12],12.37 M x 10^4
same,Bound drug concentration,[12],10.84 M x 10^4
same,Free drug concentration,[12],30.35 M x 10^4
same,r/(Df),[12],0.41 L/g
same,Amount bound per gram of polymer,[13],12.93 M x 10^4
same,Bound drug concentration,[13],11.34 M x 10^4
same,Free drug concentration,[13],39.36 M x 10^4
same,r/(Df),[13],0.33 L/g
